Results reported in patent publication US9345716B2, “Protein free surfactant composition for pulmonary diseases and a process for preparing the same” (INDIAN INSTITUTE OF TECHNOLOGY, BOMBAY, priority 2010, dated 2016).
Several values for one entry are separate records, joined by “and”; a condition that tells them apart may be missing. Identical values can stand only once.

Experiments:
[1] = Laurdan fluorescence ratio (lamellar/non-lamellar phase state); assay type: physicochemical; details: for Ratio of Laurdan fluorescence 360/390: 360 and 390 nm; for Ratio of Laurdan fluorescence 360/490: 360 and 490 nm
From the text: (§1) Laurdan (6-dodecanoyl-2-dimethylaminonaphthalene) is a fluorescent membrane probe that has the advantage of displaying spectral sensitivity to the phospholipids phase state.
as §1

[2] = Differential scanning calorimetry: energy required by liposomes to reach the interface; assay type: physicochemical; details: liposomes 1 mg/ml
Description: Differential scanning calorimetry (DSC) was also used to study the interaction of bioactive compounds with model lipid bilayers such as DPPC. The experiments were performed at temperature ranging from 35° C. to 115° C. The rate of heating was 3° C./min and the system was allowed to cool to about 35° C. before the next experiment. The samples studied in the order of DSC results were,
Differential scanning calorimetry (DSC) was used to study the interaction of bioactive compounds with model lipid bilayers such as DPPC. The experiments were performed at temperature ranging from 35° C. to 115° C. The rate of heating was 3° C./min and the system was allowed to cool to about 35° C. before the next experiment. […] The lower the energy required by the nanovesicles, better is the rate of adsorption. […] On addition of HCl (as an acid inhibitor), there was an increase in the energy (1743 J/g) of the DPPC liposomes which affected the adsorption (59.89±2.22mN/m) of these acid-treated liposomes. The energy barrier prevented the rapid entry of these liposomes at the interface thereby affecting adsorption.

[3] = Surfactant adsorption to air-liquid interface in a langmuir trough; assay type: physicochemical
Description: Salbutamol or dexamethasone were added in a ratio of 1 part of surfactant to 0.1 parts of drug while gentamycin was added in a ratio of 1 part of surfactant to 0.2 parts of drug by weight.

[4] = Atomic force microscopy of surfactant films in presence of albumin; assay type: physicochemical; details: in the presence of albumin
From the text: The invented surfactant of DPPC: eugenol 5:3 forms closely packed structures having nanodomains in the presence of albumin. The DPPC: eugenol surfactant in the absence and presence of albumin was compared with that of DPPC alone in the absence and presence of albumin, using atomic force microscopy (AFM). AFM images of DPPC in the presence of albumin and DPPC: eugenol 5:3 in the presence of albumin are depicted in FIGS. 11 and 13 respectively and the roughness of the structures are depicted in FIGS. 12 and 14. […] The surface roughness of DPPC in the presence of albumin is depicted in FIG. 12. It confirms large aggregates with roughness of 47.47 nm. On the other hand, in the case of DPPC: eugenol in the presence of albumin, the surface roughness is only 8.9 nm as depicted in FIG. 14. The formation of nanodomains of 80-90 nm with surface roughness of 8.9 nm allows a closely packed organization which accounts for the improved surface activity of the surfactant in the presence of albumin.

[5] = Airway patency in a capillary surfactometer; details: 37 C, graded concentrations of albumin
Description: This is evaluated in a capillary surfactometer at 37 C at a concentration of 1 mg/ml of the surfactant in the presence of 0.5 mg/ml of albumin.
FIG. 2 compares the airway patency of DPPC:Eugenol 5:3 (present invention) at a concentration of 1 mg/ml with that of DPPC:clove oil 5:3 1 mg/ml in the absence and presence of 0.5 mg/ml of albumin in a capillary surfactometer at 37 C.

Structure (SMILES) | Ratio of Laurdan fluorescence 360/390 ([1]; in the presence of albumin) | Ratio of Laurdan fluorescence 360/390 ([1]; no albumin) | Ratio of Laurdan fluorescence 360/490 ([1]; in the presence of albumin) | Ratio of Laurdan fluorescence 360/490 ([1]; no albumin) | Energy required for the liposomes to reach the interface (DSC) ([2]; HCl 3.1×10^−1 moles/dm^3) [J/g] | Energy required for the liposomes to reach the interface (DSC) ([2]; acid-untreated) [J/g] | Adsorption (rate of adsorption, surface tension) ([3]; acid-treated, HCl 3.1×10^−1 moles/dm^3) [mN/m] | Adsorption (rate of adsorption, surface tension) ([3]; acid-untreated, liposomes 1 mg/ml) [mN/m] | Domain size (AFM) [4] | Surface roughness (AFM) [4] [nm] | Airway patency in presence of graded amounts of albumin [5] [%]
CCCCCCCCCCCCCCCC(=O)OC[C@H](COP(=O)([O-])OCC[N+](C)(C)C)OC(=O)CCCCCCCCCCCCCCC [DPPC, dipalmitoylphosphatidylcholine] | 1.98 and 1.99 | 2.6 and 2.615 | 1.21 and 1.215 | 2.41 | 1743 | 1325 | 59.89±2.22 | 44.66±1.71 | 540-550 nm | 47.47 | 0
C=CCc1ccc(O)c(OC)c1 [eugenol] |  |  |  |  |  |  |  |  |  |  | 0
